Values quoted from earlier work, collected in patent publication US20060094734A1, “Composition and method for inducing alertness” (priority 2004, published 2006).

Tested on: rats
Conditions: rat, in vivo

## NCCS(=O)(=O)O [taurine, 2-aminoethanesulfonic acid]
  LD 50: greater than 5,000 mg/kg
